Laboratory results reported in patent US10239923B2, “Specific amyloid beta binding peptides and the use of same for treating and diagnosing alzheimer's dementia” (Forschungszentrum Juelich GmbH, priority 2015, dated 2019).
Square brackets hold non-standard residues; d marks the D form. Peptide text beside a SMILES is read from it.

Experiments:
[1] = system: Neuro-2a cells stably transfected with human APP695; test: Influence on APP-expressing cells; type: cell-based, murine; settings: incubation with 10 μM or 100 μM Mosd1
Description: FIG. 9: The murine neuroblastoma cell line Neuro-2a serves as a model for neuronal cells and is thus suitable for analyzing the symptoms of AD. […] In this way, the influence of naturally occurring Aβ1-42 species can be examined directly in neuronal cells. In the experiment, Neuro-2a cells were cultivated without APP parallel to those with the APP transfection. […] By incubation with 10 μM or 100 μM Mosd1, however, this pathological phenotype can be reversed, and the cells develop in accordance with the physiological phenotype corresponding to wild-type Neuro-2a cells. This means that the cell number increases and the cells accumulate, have a polygonal shape and form numerous cell contact points and spurs (middle and right-hand image).

[2] = molecular target: T1, Aβ1-42 monomers versus Aβ1-42 oligomers and fibrils (biotinylated, D-enantiomeric, immobilized) (Homo sapiens, UniProt P05067); test: Monoclonal phage ELISA; type: binding
T1 construct: biotinylated, D-enantiomeric Aβ1-42 monomers
Text: The specificity of the peptide results from the difference in % of the absorption values for the target molecule or the bait (for example A beta monomer) and the normalized absorption values for the competitors (for example A beta oligomers and fibrils) in the monoclonal phage ELISA.
The absorption values then constitute the affinity of individual phage clones for a particular immobilized A beta species. Here, the specificity is not dependent on the strength of the affinity, but instead only on the difference of the affinities between the species. […] The terms “competitors” and “target molecule” or “bait” are defined as specified below.
A method for normalizing the obtained values should therefore be performed. From all absorption values of the individual phage clone in the monoclonal phage ELISA, the values of the phage antibodies tested for cross-reaction can be used as background. This occurs in accordance with the previously immobilized species. The signal values of the phage antibody from the reaction trays with immobilized Aβ1-42 oligomers for this purpose can be removed from the signal values of the individual phage clone from the reaction trays with immobilized Aβ1-42 oligomers. A similar process is then carried out for Aβ1-42 monomers. In this way, a possible background signal of the phage antibody can initially be calculated from the signals of the individual phage clone. […] Only in this way is an equal interpretation of the results particularly in respect of the assessment of the specificity of the individual phage clone possible (see FIG. 2).
The affinity of individual phage clones with respect to the target molecule and the competitors was examined by means of ELISA. For this purpose, all three species were immobilized in biotinylated form on a polystyrene surface at streptavidin bound thereon. Since, during the panning rounds, oligomers and fibrils were added at the same time as competitors, these two species were immobilized in the monoclonal phage ELISA, likewise mixed. […] The streptavidin-coated microtiter plates were pre-washed as specified by the manufacturer. […] For immobilization, 100 μl were used per reaction tray and were incubated for 15 minutes at room temperature. After having washed the entire plate(s) twice with 150 μl 1×TBS per reaction tray, a blocking step with 150 μl 1×TBS/0.1% (v/v) Tween-20/1% (w/v) BSA was performed for an hour at room temperature. Three washing steps with 150 μl 1×TBS/0.1% (v/v) Tween-20 then followed per reaction tray. The amplified individual phage clones were mixed 1:1 with 1× TBS/1% (w/v) BSA. The antibody 6E10 was diluted 1:10,000 in 1×TBS/0.1% (v/v) Tween-20. […] After washing five times with 150 μl 1×TBS/0.1% (v/v) Tween-20 per reaction tray, 200 μl 1×TBS/0.1% (v/v) Tween-20 were placed in each reaction tray, and the plate(s) incubated for one hour at room temperature. The solutions were removed and replaced as follows: In all reaction trays that had been incubated previously with individual phage clone dilutions or the batch without phages, 100 μl of a phage antibody diluted 1:5,000 in 1×TBS/0.1% (v/v) Tween-20 were now added. The enzyme horseradish peroxidase (HRP) was coupled to this antibody and later served for the conversion of a substrate (TMB). […] At the same time, 100 μl of a second antibody diluted 1:1,000 in 1×TBS/0.1% (v/v) Tween-20 were now added to all reaction trays that had been previously incubated with the dilution of the 6E10 antibody, said second antibody being able to identify and bind to the 6E10 antibody originating from mice. This antibody is also HRP-coupled and thus allows a quantification of the binding of the first antibody to the immobilized target molecules or the plastics surface of the reaction tray. After one hour of incubation at room temperature, the plate(s) was/were washed 10 times with 150 μl 1×TBS/0.1% (v/v) Tween-20 per reaction tray. The signal was detected by adding the substrate 3,3′,5,5′-tetramethylbenzidine (TMB). […]

[3] = molecular target: Aβ1-42 species of different size (Homo sapiens, UniProt P05067); test: Density gradient centrifugation, tris-tricine SDS gel and silver staining of Aβ1-42 species; type: biochemical
Description: The batch was then incubated either with or without addition of peptide for a further 40 minutes and was then placed on an iodixanol density gradient. The gradient was then centrifuged, wherein the contents of the sample (Aβ1-42 species of different size) diffused within the gradient in accordance with their size and shape. The gradient was fractionated after centrifugation into 15 fractions (1-15), and the first 14 individual fractions were applied to a tris-tricine SDS gel. The contents per fraction were separated electrophoretically. […] The batch was then incubated either without (A) or with addition of different concentrations of Mosd1 (B=10 μM Mossd1; C=20 μM Mosd1; D=40 μM Mosd1; E=80 μM Mosd1) for a further 40 minutes and was then placed on an iodixanol density gradient. The gradient was then centrifuged, wherein the contents of the sample (Aβ1-42 species of different size) diffused within the gradient in accordance with their size and shape. The gradient was fractionated after centrifugation (1-15), and the individual fractions were applied to a tris-tricine SDS gel. The contents per fraction were separated electrophoretically.

Aβ1-42 [4] = molecular target: T2, Aβ1-42 (Homo sapiens, UniProt P05067); test: ThT test, modulation of Aβ1-42 aggregation; type: biochemical; settings: 10 μM Aβ1-42, equimolar peptide, versus Aβ1-42 alone = 100%
Text: FIG. 3: The average relative fluorescence from seven independently performed ThT experiments with standard deviation is shown. The dye Thioflavin T (ThT) binds to β-pleated sheet structures in the batch and thereupon changes its fluorescence spectrum. […] The time in which the logarithmic rise of the fluorescence signal transitioned into a stationary phase was set to 100%.

Aβ1-42 [5] = molecular target: T2, Aβ1-42; test: TEM of Aβ1-42 incubated with and without Mosd1; type: biochemical; settings: 10 μM Aβ1-42 with 10 μM Mosd1, 24 hours, room temperature
Text: The scale bars correspond to 0.25 μm.

[6] = 80 μM Aβ1-42 pre-incubated […], 40 μM peptide for 40 minutes

Chain of Aβ1-42 species of different size (P05067 672-713 limits assumed): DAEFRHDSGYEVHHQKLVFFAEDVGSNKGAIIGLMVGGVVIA
T1 sequence (P05067 672-713): as the sequence (P05067 672-713 limits assumed) above
T2 sequence (P05067 672-713 limits assumed): as above

`CSCC[C@@H](NC(=O)[C@@H](Cc1c[nH]cn1)NC(=O)[C@@H](Cc1ccc(O)cc1)NC(=O)[C@@H](CO)NC(=O)[C@H](NC(=O)[C@@H](CC(C)C)NC(=O)[C@@H](Cc1ccc(O)cc1)NC(=O)[C@@H](CO)NC(=O)[C@H](N)Cc1ccc(O)cc1)[C@H](C)O)C(=O)N[C@@H](C(=O)N[C@H](Cc1c[nH]c2ccccc12)C(=O)N[C@H](CCCNC(=N)N)C(N)=O)C(C)C` [Mosd1] (H-[dY][dS][dY][dL][dT][dS][dY][dH][dM][dV][dW][dR]-NH2) was tested, and the “pathological phenotype of APP-expressing cells” value [1] was “reversed”, the “absorption values (signal strength) for monomeric Aβ1-42” value ([2]; individual phage clone, absorption at 450 nm) was “highest absorption values for monomeric Aβ1-42 of all tested clones” and the “Difference in signal strength between Aβ1-42 monomers (100%) and Aβ1-42 oligomers and fibrils” value ([2]; individual phage clones, species immobilized at 320 nM, absorption at 450 nm normalized with 6E10 control, higher = more monomer-specific) was 71.989%. The “binding preference for monomeric Aβ1-42 over Aβ1-42 oligomers and fibrils or plastics surface” value ([2]; normalized absorption values at 450 nm) was “greatest difference in the absorption values for monomeric Aβ1-42 and oligomeric or fibrillar Aβ1-42”, the “oligomeric Aβ1-42 species (fractions 4-7)” value [3, 6] was “reduce” and the “proportions of high-molecular Aβ1-42 species (fractions 10-14)” value [3, 6] was “increase”. For the same compound, the “signal strength in fractions 1-2 (monomeric Aβ)” value ([3]; concentrations higher than 20 μM Mosd1) was “reduction of the signal strength”, the “proportion of small Aβ1-42 species and toxic oligomers” value ([3]; higher concentrations, 40 μM and 80 μM Mosd1, 80 μM Aβ1-42) was “reduce the proportion of small Aβ1-42 species and toxic oligomers considerably” and the “proportion of toxic oligomers (fractions 4-7)” value ([3]; lower concentrations, 10 μM and 20 μM Mosd1, 80 μM Aβ1-42) was “reduce the proportion of toxic oligomers”. For the same compound, the “relative ThT fluorescence (formation of β-pleated sheet structures)” value (Aβ1-42 [4]) was “reduce the relative fluorescence” and the “aggregate morphology in TEM” value (Aβ1-42 [5]) was “formation of large, high-molecular aggregates”.
